Earlier results on one compound are cited in US6200975A, “Substituted 1,2,4-triazolo[3,4-a]phthalazine derivatives as GABA alpha 5 ligands” (Merck Sharp & Dohme Limited, priority 1997, dated 2001).

For the data set the following is noted: reported by McNamara and Skelton.

Take `COC(=O)c1cc2c(cn1)[nH]c1ccccc12` [β-CCM]: the “spatial learning in the Morris watermaze” value was “enhanced spatial learning”.
